US20180221487A1, “NOVEL PROTEIN TRANSFECTION COMPOSITIONS AND USES THEREOF” (Chang Gung Memorial Hospital, Linkou, priority 2017, published 2018)

Experiments:
breast cancer cells = assay: Protein transfection efficiency by flow cytometry; type: cell-based, human; details: HEPES buffer 20 mM-40 mM
Experimental: (§1) Flow cytometry: After protein transfection was completed, the cells in the culture dish were washed with PBS, trypsinized and pelleted. The cells were mixed with Fixation/Permeabilization (eBioscience, Inc., San Diego, Calif., USA) working solution and incubated at 4° C. for 30 min to 24 h. Cells were washed twice with 1× Permeabilization Buffer (eBioscience, Inc., San Diego, Calif., USA). To assess the protein transfection efficiency, the cells were stained with anti-v5 or anti-flag antibodies and Alexa Fluor 488 anti-mouse antibodies on ice. Cells were suspended in 1×PBS and analyzed by flow cytometry (BD Biosciences, Qume Drive San Jose, Calif., USA). FIG. 1 schematically illustrates the protein transfection procedure. Briefly, the protein of interest and a protein transfection composition, such as HEPES buffer, were mixed and incubated for about 15 min to about 30 min to form a mixture (Panel A). Cells to be transfected were replaced in a minimal essential medium (Panel B). The mixture in Panel A was added to the cells in Panel B and incubated at 37° C. for about 4 to about 24 hours (Panel C). The protein transfection efficiency can be analyzed using immunofluorescent staining or flow cytometry (Panel D). Alexa Fluor 488 anti-mouse IgG or […]1 were incubated with Opti-MEM (the control group) or HEPES buffer (20 mM-40 mM) to transfect the following cancer cells according to the steps in Example 1: human cervical cancer cells, human breast cancer cells (MCF7, BRCA009 or BRCA011), human endometrial cancer cells, lung adenocarcinoma cells, human pancreatic cancer cells, hepatocellular carcinoma cells, scarcoma cells, renal cell carcinoma cells, lymphoma cells, nasopharyngeal carcinoma cells, brain tumor cells, colon cancer cells, and leukemic cells. The protein transfection efficiency was assessed by flow cytometry or confocal microscope.

[1] = tested on: lung adenocarcinoma cells; assay: Protein transfection efficiency by flow cytometry; type: cell-based, human; details: HEPES buffer 20 mM-40 mM
Experimental: as §1

cervical cancer cells = assay: Protein transfection efficiency by flow cytometry; type: cell-based, human; details: HEPES buffer 20 mM-40 mM
Experimental: as §1

endometrial cancer cells = assay: Protein transfection efficiency by flow cytometry; type: cell-based, human; details: HEPES buffer 20 mM-40 mM
Experimental: as §1

[2] = tested on: hepatocellular carcinoma cells; assay: Protein transfection efficiency by flow cytometry; type: cell-based, human; details: HEPES buffer 20 mM-40 mM
Experimental: as §1

pancreatic cancer cells = assay: Protein transfection efficiency by flow cytometry; type: cell-based, human; details: HEPES buffer 20 mM-40 mM
Experimental: as §1

[3] = tested on: human ovarian cancer cells (MDAH2774); assay: Protein transfection, immunofluorescent staining / confocal microscopy; type: cell-based; details: transfected using 20-30 mM HEPES buffer
Experimental: Immunofluorescent staining procedure: After protein transfection is completed, the cells in the culture dish were washed three times with phosphate buffered saline (PBS) and fixed with 4% paraformaldehyde for 20 min. The cells were washed again with PBS, perforated with 0.1% Triton X-100 for 5 min, and blocked with 10% BSA for 30 min. For Alexa Fluor 488 anti-mouse IgGs, cells were stained with DAPI for 10 min. For B23, histone 1 or GAPDH antibody transfection, cells were stained with Alexa Fluor 488 or 546 anti-mouse IgG antibodies for 30 min and then stained with DAPI. For rhSTIP1 proteins or Flag-Rev peptides transfection, cells were stained with anti-v5 or anti-flag antibodies, respectively, and then stained with Alexa Fluor 488 anti-mouse IgG and DAPI. All images were detected by confocal microscopes (Leica, Wetzlar, Germany). The fluorescent signals were analyzed and quantified by Q-Win software (Leica, Wetzlar, Germany).
FIG. 1 schematically illustrates the protein transfection procedure. Briefly, the protein of interest and a protein transfection composition, such as HEPES buffer, were mixed and incubated for about 15 min to about 30 min to form a mixture (Panel A). Cells to be transfected were replaced in a minimal essential medium (Panel B). The mixture in Panel A was added to the cells in Panel B and incubated at 37° C. for about 4 to about 24 hours (Panel C). The protein transfection efficiency can be analyzed using immunofluorescent staining or flow cytometry (Panel D).
An in vitro evaluation of the optimal protein transfection condition was performed. According to the steps in FIG. 1. rhSTIP1 was incubated with HEPES buffers of different concentrations (5 or 20 mM) or Opti-MEM (control) at room temperature for about 15 minutes to form the protein mixtures to transfect human ovarian cancer cells. The mixtures were added to the cell culture dish comprising Opti-MEM and incubated at 37° C. for about 4 to about 24 hours.
Different amounts of Alexa Fluor® 488 anti-mouse IgG (0, 2, 4, 8, or 16 μg) were incubated with 20 mM HEPES buffer and mixed with ovarian (MDAH2774) cancer cells in Opti-MEM.
Alexa Fluor 488 anti-mouse IgG antibodies were mixed with 20 mM HEPES to form a mixture. […] Protein transfection efficiency was assessed using confocal fluorescent microscope.
The following proteins were incubated with Opti-MEM (control group) or 20-30 mM HEPES buffer to transfect ovarian cancer cells (MDAH2774 or MOSEC) or endometrial cancer cells: Alexa Fluor 488-conjugated, anti-mouse IgG antibody (about 150 kDa), anti-B23 antibody, anti-histone 1 antibody, anti-STIP1 antibody, rhSTIP1 protein (62.6 kDa), Flag-Rev peptide (<5 kDa) and FITC-Rev peptide (<5 kDa). […] Protein transfection efficiency was assessed by staining the transfected cancer cells with Alexa Fluor 488 or 594 anti-mouse IgG antibodies (for Alexa Fluor 488-conjugated anti-mouse IgG antibody, anti-B23 antibody, anti-histone 1 antibody, anti-STIP1 antibody), v5 antibody (for rhSTIP1), or anti-Flag antibody (for Flag-Rev peptide), and fluorescent signals were analyzed with confocal microscopy.
The protein transfection efficiency of HEPES was compared to other commercial reagents, such as PULsin™, ProteoJuice™, Pro-Ject™, Xfect™, and BioPORTER®. […] The transfected ovarian cancer cells were stained with Alexa Fluor 488 anti-mouse IgG antibodies and protein transfection efficiency was assessed by confocal fluorescent microscopy.

Substance: rhSTIP1: v5-tagged recombinant human STIP1 protein (BiP-STIP1-V5-His), 62.6 kDa
- transfection efficiency of rhSTIP1 using HEPES buffer (breast cancer cells): about 98.8%
- transfection efficiency of rhSTIP1 using HEPES buffer [1]: ~99.5%
- transfection efficiency of rhSTIP1 using HEPES buffer (cervical cancer cells): about 98.8%
- transfection efficiency of rhSTIP1 using HEPES buffer (endometrial cancer cells): ~97%
- transfection efficiency of rhSTIP1 using HEPES buffer [2]: ~96.6%
- transfection efficiency of rhSTIP1 using HEPES buffer (pancreatic cancer cells): ~99.9%
- fluorescent signal of transfected protein (confocal microscopy) [3]: detected
